One series addresses ERK1 (Homo sapiens, UniProt P27361). As to the kind of experiment: ERK1 and 2 Enzymatic Inhibition Assay (ERK1). Particulars: 10 assay concentrations 2×10^−6 M to 6×10^−11 M, 1% DMSO. The format is biochemical. The protocol:
(§1) ERK1 and 2 Enzymatic Inhibition Assay
(§2) For the Ki determination assay, 200 μM stock solutions of compounds were subjected to a serial, semi-logarithmic dilution using 100% DMSO as a solvent. 10 distinct concentrations were prepared, with a dilution endpoint of 6×10^−9 M in 100% DMSO. 100% DMSO was used as a control. 10 μL from each of the serial dilutions were aliquoted into separate wells of a 96-well plate and 90 μL of water were added to each of those wells. The plate was shaken thoroughly, and 5 μL from each of the plate's wells were transferred into wells of the assay plate. The final volume of wells in the assay plate was 50 μL. All compounds were tested at 10 assay concentrations in the range from 2×10^−6 M to 6×10^−11 M. The final DMSO concentration in the wells of the assay plate was 1% in all cases.

The next series concerns the target ERK2 (Homo sapiens, UniProt P28482). As to the kind of experiment: ERK1 and 2 Enzymatic Inhibition Assay (ERK2). In kind it is biochemical. Conditions: 10 assay concentrations 2×10^−6 M to 6×10^−11 M, 1% DMSO. The procedure:
as §1, §2

Series [1] deals with drug-sensitive cell lines of Table 4. As to the kind of experiment: Cell line growth retardation assay, average over sensitive cohort. The format is cell-based, Human. Conditions: Homo sapiens, 144 h; geometric mean of IC50s over sensitive cohort (Table 4); 6 days growth; read-out: AvgSens IC50. The protocol: (§3) Cell Line Growth Retardation Assay
(§4) Cells were seeded at densities of 1,000-5,000 cells per well in 48-well tissue culture plates. After a 24 h rest period, cells were treated with compound at 10 μM, 2 μM, 0.4 μM, 0.08 μM, 0.016 μM, and 0.0032 μM. A group of cells were treated with the vehicle in which the compound was prepared and served as a control. The cells were grown in the presence of compounds for 6 days and were counted on day 0 and day 6. All cell counting was performed using a Synentec Cellavista plate imager. […] Growth inhibition was calculated as a ratio of cell population doublings in the presence of compound versus the absence of compound. […] IC50 values for each compound were calculated by fitting curves to data points from each dose-response assay using the Proc NLIN function in SAS for Windows version 9.2 (SAS Institute, Inc.).
(§5) Designation of Sensitivity and Resistant Cohorts and Calculation of Average IC50 Values
(§6) Human cancer cell lines were grouped as “sensitive” or “resistant” to ERK1 inhibition based on whether their growth was retarded by KO-947 (i.e., 1,5,6,8-tetrahydro-6-(phenylmethyl)-3-(4-pyridinyl)-7H-pyrazolo[4,3-g]quinazolin-7-one) and SCH772984 (i.e., (3R)-1-[2-oxo-2-[4-[4-(2-pyrimidinyl)phenyl]-1-piperazinyl]ethyl]-N-[3-(4-pyridinyl)-1H-indazol-5-yl]-3-pyrrolidinecarboxamide) (data not shown; see Table 4). These sensitive and resistant cohorts were interrogated for response to each compound, and IC50s were calculated for each cell line using the same technique described above. Average IC50s for the sensitive and resistant cohorts were calculated as geometric means of the group.

Series [2] has as its system drug-resistant cell lines of Table 4. As to the kind of experiment: Cell line growth retardation assay, average over resistant cohort. The format is cell-based, Human. Conditions: Homo sapiens, 144 h; geometric mean of IC50s over resistant cohort (Table 4); 6 days growth; read-out: AvgRes IC50. The procedure:
as §3, §4, §5, §6

A short description of series [3]: Compound metabolic stability in hepatocytes. Conditions: hepatocytes from mice and rats (species not given); class symbols without key. In kind it is in vitro ADME. The protocol: The metabolic stability of compounds was determined in hepatocytes from mice and rats. Compounds were diluted to 5 μM in Williams' Medium E from 10 mM stock solutions. 10 μL of each compound was aliquoted into a well of a 96-well plate and reactions were started by aliquoting 40 μL of a 625,000 cells/mL suspension into each well. The plate was incubated at 37° C. with 5% CO2. At each corresponding time point, the reaction was stopped by quenching with ACN containing internal standards (IS) at a 1:3. Plates were shaken at 500 rpm for 10 min, and then centrifuged at 3,220×g for 20 minutes. Supernatants were transferred to another 96-well plate containing a dilution solution. Supernatants were analyzed by LC/MS/MS.
Compound half-life was estimated using the following equation: % Remaining Compound=Peak Area Ratios of Tested Compound vs. Internal Standard at End Point/Peak Area Ratios of Tested Compound vs. Internal Standard at Start Point Mouse Xenograft Studies

The results in this text go back to patent publication US12428416B2 (California Institute of Technology, priority 2018, dated 2025).

Each structure is given as a SMILES string. Some results are limits rather than exact numbers.

Chain of ERK1 (P27361 whole entry): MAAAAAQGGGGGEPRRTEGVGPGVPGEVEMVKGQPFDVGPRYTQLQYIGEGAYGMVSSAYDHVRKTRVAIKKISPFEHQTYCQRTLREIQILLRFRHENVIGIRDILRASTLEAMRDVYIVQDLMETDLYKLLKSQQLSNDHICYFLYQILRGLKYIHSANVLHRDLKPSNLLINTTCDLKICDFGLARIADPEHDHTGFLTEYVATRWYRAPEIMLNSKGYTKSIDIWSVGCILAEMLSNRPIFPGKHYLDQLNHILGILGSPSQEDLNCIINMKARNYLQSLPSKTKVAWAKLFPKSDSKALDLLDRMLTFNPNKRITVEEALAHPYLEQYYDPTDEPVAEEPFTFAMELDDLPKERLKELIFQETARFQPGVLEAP
Chain of ERK2 (P28482 whole entry): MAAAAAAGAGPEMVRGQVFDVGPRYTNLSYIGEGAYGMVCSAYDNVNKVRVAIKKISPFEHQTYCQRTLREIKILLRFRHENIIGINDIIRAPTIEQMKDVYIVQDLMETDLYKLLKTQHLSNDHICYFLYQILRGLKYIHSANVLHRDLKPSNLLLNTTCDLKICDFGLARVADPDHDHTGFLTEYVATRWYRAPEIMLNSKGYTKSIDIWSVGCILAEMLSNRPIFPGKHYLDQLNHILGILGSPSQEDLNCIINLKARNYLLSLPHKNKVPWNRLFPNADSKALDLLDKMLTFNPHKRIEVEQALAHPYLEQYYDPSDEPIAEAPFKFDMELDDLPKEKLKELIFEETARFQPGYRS

What is called Kd is a measure of binding affinity in units of concentration. By IC50 is commonly meant the point on the concentration scale where inhibition reaches its midpoint. By half-life is commonly meant how long it takes for the measured level to halve. With `CC(NC(=O)c1ncc(-c2c[nH]c3ncc(N4CCOCC4)cc23)cn1)c1ccccc1` (stereo in doubt) [Compound 22, (S)-5-(5-morpholino-1H-pyrrolo[2,3-b]pyridin-3-yl)-N-(1-phenylethyl)pyrimidine-2-carboxamide], the Kd on ERK1 and at ERK2 was more than 100 nM in each case. Also, the IC50 in series [1] and in series [2] was more than 500 nM throughout. The compound further displayed a half-life at 1 µM in series [3] of more than 25 min.

As to `Cc1cccc(C(C)NC(=O)c2ncc(-c3c[nH]c4ncc(N5CCOCC5)cc34)cn2)c1` (stereo in doubt) [Compound 50, (R)-5-(5-morpholino-1H-pyrrolo[2,3-b]pyridin-3-yl)-N-(1-(m-tolyl)ethyl)pyrimidine-2-carboxamide], the equilibrium dissociation constant (Kd) on ERK1 and at ERK2 was not above 10 nM throughout. In addition, the IC50 is not above 250 nM in series [1] and more than 500 nM in series [2]. Besides, the half-life at 1 µM in series [3] was more than 25 min.

For `c1ccc([C@H]2COC(c3ncc(-c4c[nH]c5ncc(N6CCOCC6)cc45)cn3)=N2)cc1` [Compound 27, (S)-4-(3-(2-(4-phenyl-4,5-dihydrooxazol-2-yl)pyrimidin-5-yl)-1H-pyrrolo[2,3-b]pyridin-5-yl)morpholine], the dissociation constant Kd on ERK1 and at ERK2 was not above 10 nM in each case. The half-maximal inhibitory concentration (IC50) in series [1] and in series [2] was more than 500 nM each time. In series [3], this compound registered a half-life at 1 µM of more than 25 min.

As to `C[C@@H](NC(=O)c1ncc(-c2c[nH]c3ncc(N4CCOCC4)cc23)cn1)c1ccc(Cl)cc1` [Compound 25, (R)—N-(1-(4-chlorophenyl)ethyl)-5-(5-morpholino-1H-pyrrolo[2,3-b]pyridin-3-yl)pyrimidine-2-carboxamide], the Kd on ERK1 and on ERK2 was not above 10 nM each time. In addition, the half-maximal inhibitory concentration (IC50) in series [1] and in series [2] was more than 500 nM throughout. This compound had a half-life at 1 µM in series [3] of more than 25 min.

On to `c1ccc([C@@H]2CN=C(c3ncc(-c4c[nH]c5ncc(N6CCOCC6)cc45)cn3)O2)cc1` [Compound 29, (R)-4-(3-(2-(5-phenyl-4,5-dihydrooxazol-2-yl)pyrimidin-5-yl)-1H-pyrrolo[2,3-b]pyridin-5-yl)morpholine], for which the Kd on ERK1 and at ERK2 was 11 to 100 nM each time. Besides, the concentration for half-maximal inhibition (IC50) in series [1] and in series [2] was more than 500 nM throughout. The compound also displayed a half-life at 1 µM in series [3] of more than 25 min.

Turning to `c1ccc([C@@H]2COC(c3ncc(-c4c[nH]c5ncc(N6CCOCC6)cc45)cn3)=N2)cc1` [Compound 28, (R)-4-(3-(2-(4-phenyl-4,5-dihydrooxazol-2-yl)pyrimidin-5-yl)-1H-pyrrolo[2,3-b]pyridin-5-yl)morpholine], the dissociation constant (Kd) on ERK1 and on ERK2 was more than 100 nM each time. The IC50 in series [1] and in series [2] was more than 500 nM in each case. The same compound gave a half-life at 1 µM in series [3] of more than 25 min.

As for `C[C@@H](NC(=O)c1ncc(-c2c[nH]c3ncc(N4CCOCC4)cc23)cn1)c1cccc(Cl)c1` [Compound 20, (R)—N-(1-(3-chlorophenyl)ethyl)-5-(5-morpholino-1H-pyrrolo[2,3-b]pyridin-3-yl)pyrimidine-2-carboxamide], the dissociation constant (Kd) on ERK1 and at ERK2 was not above 10 nM in each case. Besides, the 50% inhibitory concentration (IC50) in series [1] is not above 250 nM; in series [2], more than 500 nM. This compound yielded a half-life at 1 µM in series [3] of more than 25 min.

On to `O=C(NCCc1ccccc1)c1ncc(-c2c[nH]c3ncc(N4CCOCC4)cc23)cn1` [Compound 11, 5-(5-morpholino-1H-pyrrolo[2,3-b]pyridin-3-yl)-N-phenethylpyrimidine-2-carboxamide], for which the Kd at ERK1 and on ERK2 was not above 10 nM in each case. Moreover, the values for the IC50 in series [1] and in series [2] were 251 to 500 nM and more than 500 nM, respectively. This compound also came in with a half-life at 1 µM in series [3] of less than 25 min.

Consider `O=C(c1ncc(-c2c[nH]c3ncc(N4CCOCC4)cc23)cn1)N1CCCC1c1ccccn1` (centres unmarked) [Compound 26, (5-(5-morpholino-1H-pyrrolo[2,3-b]pyridin-3-yl)pyrimidin-2-yl)(2-(pyridin-2-yl)pyrrolidin-1-yl)methanone], for which the results for the Kd at ERK1 and at ERK2 were 11 to 100 nM and more than 100 nM, respectively. For the same compound, the IC50 in series [1] and in series [2] was more than 500 nM each time. The half-life at 1 µM in series [3] is less than 25 min.

For `O=C(c1ncc(-c2c[nH]c3ncc(N4CCOCC4)cc23)cn1)N1CCC[C@@H]1c1ccccc1` [Compound 18, (R)-(5-(5-morpholino-1H-pyrrolo[2,3-b]pyridin-3-yl)pyrimidin-2-yl)(2-phenylpyrrolidin-1-yl)methanone], the Kd at ERK1 and on ERK2 was 11 to 100 nM each time. Moreover, the 50% inhibitory concentration (IC50) in series [1] and in series [2] was more than 500 nM in each case.

As for `C[C@H](NC(=O)c1ncc(-c2c[nH]c3ncc(-c4ccncc4)cc23)cn1)c1ccccc1` [Compound 39, (S)—N-(1-phenylethyl)-5-(5-(pyridin-4-yl)-1H-pyrrolo[2,3-b]pyridin-3-yl)pyrimidine-2-carboxamide], the Kd at ERK1 and on ERK2 was not above 10 nM throughout. For the same compound, the 50% inhibitory concentration (IC50) is not above 250 nM in series [1] and more than 500 nM in series [2].

As for `O=C(NCCc1ccccc1Cl)c1ncc(-c2c[nH]c3ncc(N4CCOCC4)cc23)cn1` [Compound 61, N-(2-chlorophenethyl)-5-(5-morpholino-1H-pyrrolo[2,3-b]pyridin-3-yl)pyrimidine-2-carboxamide], the Kd at ERK1 and at ERK2 was not above 10 nM each time. For the same compound, the IC50 in series [1] was 251 to 500 nM; in series [2] it was more than 500 nM.

For the compound `O=C(NCCc1ccccc1)c1ccc(-c2c[nH]c3ncc(N4CCOCC4)cc23)nn1` [Compound 13, 6-(5-morpholino-1H-pyrrolo[2,3-b]pyridin-3-yl)-N-phenethylpyridazine-3-carboxamide], the equilibrium dissociation constant (Kd) on ERK1 was 11 to 100 nM; at ERK2, more than 100 nM. Moreover, the IC50 in series [1] and in series [2] was more than 500 nM each time.

`C[C@H](c1ccccc1)N(C)C(=O)c1ncc(-c2c[nH]c3ncc(N4CCOCC4)cc23)cn1` [Compound 17]: the Kd at ERK1 and on ERK2 was 11 to 100 nM each time. Also, the IC50 in series [1] and in series [2] was more than 500 nM in each case.

As to `c1ccc([C@H]2CN=C(c3ncc(-c4c[nH]c5ncc(N6CCOCC6)cc45)cn3)O2)cc1` [Compound 55, (S)-4-(3-(2-(5-phenyl-4,5-dihydrooxazol-2-yl)pyrimidin-5-yl)-1H-pyrrolo[2,3-b]pyridin-5-yl)morpholine], the Kd at ERK1 and at ERK2 was 11 to 100 nM in each case. Also, the IC50 in series [1] and in series [2] was more than 500 nM in each case.

In the case of `c1ccc([C@H]2CN=C(c3ncc(-c4c[nH]c5ncc(N6CCOCC6)cc45)cn3)N2)cc1` [Compound 15, (S)-4-(3-(2-(5-phenyl-4,5-dihydro-1H-imidazol-2-yl)pyrimidin-5-yl)-1H-pyrrolo[2,3-b]pyridin-5-yl)morpholine], the Kd at ERK1 and at ERK2 was 11 to 100 nM throughout. Moreover, the IC50 in series [1] and in series [2] was more than 500 nM in each case.

As to `O=C(NCCc1ccccc1)c1ccc(-c2c[nH]c3ncc(N4CCOCC4)cc23)nc1` [Compound 9, 6-(5-morpholino-1H-pyrrolo[2,3-b]pyridin-3-yl)-N-phenethylnicotinamide], the Kd at ERK1 and at ERK2 was more than 100 nM throughout. Also, the half-maximal inhibitory concentration (IC50) in series [1] and in series [2] was more than 500 nM in each case.
